Holding throughout (format): biochemical
The target of one test is T1, Recombinant human HDAC2 (Homo sapiens, UniProt Q92769).
T1 construct: Full length human HDAC2-FLAG was expressed in baculovirus infected Sf9 cells; FLAG (C); made in house; host or cells: Sf9 (baculovirus)
As to the kind of experiment: Human HDAC enzyme inhibitor Fluor-de-Lys assay, HDAC2. The following applies: recombinant human HDAC2, Fluor-de-Lys assay. The method, boiled down:
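Fluor-de-Lys format at room temperature (23° C.): compounds titrated 10-point, 1:3, preincubated with HDAC before substrate addition. Developer with excess HDAC inhibitor ends the reaction, and trypsin-liberated AMC fluorescence is the read-out.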

The next test addresses T2, Recombinant human HDAC8 (Homo sapiens, UniProt Q9BY41).
T2 construct: purchased Enzo Life Sciences BML-SE145-0100
T2 sequence (Q9BY41 1-377): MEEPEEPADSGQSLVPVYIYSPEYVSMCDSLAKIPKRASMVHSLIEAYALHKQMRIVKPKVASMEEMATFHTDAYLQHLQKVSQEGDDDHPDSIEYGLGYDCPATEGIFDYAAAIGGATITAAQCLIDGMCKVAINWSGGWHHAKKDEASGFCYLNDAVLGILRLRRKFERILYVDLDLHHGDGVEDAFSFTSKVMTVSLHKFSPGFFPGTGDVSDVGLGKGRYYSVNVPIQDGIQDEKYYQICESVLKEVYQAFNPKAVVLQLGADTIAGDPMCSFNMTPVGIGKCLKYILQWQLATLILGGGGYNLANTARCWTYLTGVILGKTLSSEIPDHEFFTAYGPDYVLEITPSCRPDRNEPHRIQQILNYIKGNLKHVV
As to the kind of experiment: Human HDAC enzyme inhibitor Fluor-de-Lys assay, HDAC8. To be noted: recombinant human HDAC8, Fluor-de-Lys assay.

The target of a further test is T3, HDAC6 (Homo sapiens, UniProt Q9UBN7).
T3 sequence (Q9UBN7 1-1215): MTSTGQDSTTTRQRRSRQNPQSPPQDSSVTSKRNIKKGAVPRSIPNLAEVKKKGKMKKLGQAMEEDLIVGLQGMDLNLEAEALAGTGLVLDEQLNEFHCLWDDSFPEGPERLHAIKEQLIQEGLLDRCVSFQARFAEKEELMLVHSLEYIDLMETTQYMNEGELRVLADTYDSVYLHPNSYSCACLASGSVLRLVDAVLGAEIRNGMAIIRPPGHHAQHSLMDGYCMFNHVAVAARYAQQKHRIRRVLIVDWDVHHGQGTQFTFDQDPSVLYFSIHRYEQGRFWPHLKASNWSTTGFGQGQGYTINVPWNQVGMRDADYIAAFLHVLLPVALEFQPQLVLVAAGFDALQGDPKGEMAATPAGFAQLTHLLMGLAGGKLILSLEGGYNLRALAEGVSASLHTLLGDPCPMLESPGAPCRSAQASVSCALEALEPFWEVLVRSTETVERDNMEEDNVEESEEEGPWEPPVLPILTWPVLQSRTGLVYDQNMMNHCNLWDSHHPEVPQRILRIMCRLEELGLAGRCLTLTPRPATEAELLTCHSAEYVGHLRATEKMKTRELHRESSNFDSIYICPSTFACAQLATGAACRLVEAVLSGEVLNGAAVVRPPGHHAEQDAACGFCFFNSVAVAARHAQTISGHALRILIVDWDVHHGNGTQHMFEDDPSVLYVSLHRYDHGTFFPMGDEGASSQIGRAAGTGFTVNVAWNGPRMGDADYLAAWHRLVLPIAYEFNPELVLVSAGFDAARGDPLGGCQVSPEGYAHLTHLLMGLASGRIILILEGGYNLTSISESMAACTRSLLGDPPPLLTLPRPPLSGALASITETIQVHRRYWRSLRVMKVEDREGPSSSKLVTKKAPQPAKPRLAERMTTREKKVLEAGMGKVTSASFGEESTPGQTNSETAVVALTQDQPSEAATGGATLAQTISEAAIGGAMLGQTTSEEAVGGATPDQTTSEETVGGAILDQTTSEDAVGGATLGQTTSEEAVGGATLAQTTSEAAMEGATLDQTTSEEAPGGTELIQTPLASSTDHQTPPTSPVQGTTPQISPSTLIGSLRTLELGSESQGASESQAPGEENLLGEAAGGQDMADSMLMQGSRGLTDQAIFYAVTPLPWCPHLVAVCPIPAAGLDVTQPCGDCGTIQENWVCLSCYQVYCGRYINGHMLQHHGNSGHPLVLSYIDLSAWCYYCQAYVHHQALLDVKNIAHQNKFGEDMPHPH
As to the kind of experiment: Human HDAC enzyme inhibitor Fluor-de-Lys assay, HDAC6. The following applies: HDAC6, Fluor-de-Lys assay.

A further test deals with T4, Recombinant human HDAC1 (Homo sapiens, UniProt Q13547).
T4 construct: FLAG (C); made in house
T4 sequence (Q13547 whole entry): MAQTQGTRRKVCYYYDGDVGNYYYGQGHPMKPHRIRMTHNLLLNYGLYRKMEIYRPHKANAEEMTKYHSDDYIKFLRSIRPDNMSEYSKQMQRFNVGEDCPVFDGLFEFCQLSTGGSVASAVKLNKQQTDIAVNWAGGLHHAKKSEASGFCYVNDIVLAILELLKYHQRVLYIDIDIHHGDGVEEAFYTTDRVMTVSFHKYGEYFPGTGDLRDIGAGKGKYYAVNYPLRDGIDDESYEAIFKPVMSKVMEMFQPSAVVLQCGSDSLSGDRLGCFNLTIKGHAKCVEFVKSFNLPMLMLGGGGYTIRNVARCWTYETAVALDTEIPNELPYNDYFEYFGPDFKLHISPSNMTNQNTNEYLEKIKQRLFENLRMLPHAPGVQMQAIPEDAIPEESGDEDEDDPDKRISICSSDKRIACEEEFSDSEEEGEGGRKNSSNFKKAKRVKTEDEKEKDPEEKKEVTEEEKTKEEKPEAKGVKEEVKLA
As to the kind of experiment: Human HDAC enzyme inhibitor Fluor-de-Lys assay, HDAC1. The following applies: recombinant human HDAC1, Fluor-de-Lys assay. The method, boiled down:
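Fluor-de-Lys format at room temperature (23° C.): compounds titrated 10-point, 1:3, preincubated with HDAC before substrate addition; HDAC1 run at 0.3 nM enzyme with 20 μM BML-KI104. Developer with excess HDAC inhibitor ends the reaction, and trypsin-liberated AMC fluorescence is the read-out.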

The structures appear in SMILES notation.

The values that follow come from patent US12590099B2, “Inhibitors of histone deacetylase useful for the treatment or prevention of HIV infection” (Merck Sharp & Dohme LLC, priority 2018, dated 2026).

Usually IC50 stands for the concentration that inhibits the measured activity by half.

T1 sequence (Q92769 whole entry): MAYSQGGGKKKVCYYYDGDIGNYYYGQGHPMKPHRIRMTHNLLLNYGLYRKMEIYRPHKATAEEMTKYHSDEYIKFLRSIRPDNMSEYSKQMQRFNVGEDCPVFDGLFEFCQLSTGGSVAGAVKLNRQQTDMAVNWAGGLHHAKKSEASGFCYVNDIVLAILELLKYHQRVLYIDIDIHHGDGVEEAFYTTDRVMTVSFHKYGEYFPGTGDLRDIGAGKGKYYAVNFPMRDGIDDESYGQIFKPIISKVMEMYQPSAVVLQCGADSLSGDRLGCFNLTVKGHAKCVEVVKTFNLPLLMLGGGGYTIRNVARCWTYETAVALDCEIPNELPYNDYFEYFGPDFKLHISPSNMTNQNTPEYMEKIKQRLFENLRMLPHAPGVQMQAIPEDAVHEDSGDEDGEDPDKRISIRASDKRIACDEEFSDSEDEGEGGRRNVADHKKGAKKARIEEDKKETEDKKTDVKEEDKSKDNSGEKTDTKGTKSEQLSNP

For the molecule `CCC(=O)CCCCC[C@H](NC(=O)[C@H]1CC[C@]2(CC1)OC(=O)c1ccncc12)c1ncc(-c2ccccc2)[nH]1` [Compound 376], the IC50 amounted to 239 nM at Recombinant human HDAC2, 4840 nM at Recombinant human HDAC8, 10800 nM against HDAC6 and 49.9 nM on Recombinant human HDAC1.
Regarding `CCC(=O)CCCCC[C@H](NC(=O)[C@H]1CC12CCN(C)CC2)c1ncc(-c2cc3ccncc3cc2OC)o1` [Compound 405], the IC50 at Recombinant human HDAC2 is 2 nM; on Recombinant human HDAC8 it was > 900 nM; against HDAC6, 163 nM; on Recombinant human HDAC1, 0.3 nM.
`CCC(=O)CCCCC[C@H](NC(=O)[C@H]1CC12CCN(CC1CC1)CC2)c1ncc(-c2cc3ccc(C)nc3cc2OC)o1` [Compound 422]: the IC50 at Recombinant human HDAC2 was 0.7 nM; on Recombinant human HDAC8 it was > 900 nM; against HDAC6, 113 nM; at Recombinant human HDAC1 it was 0.17 nM.
In the case of `CCC(=O)CCCCC[C@H](NC(=O)C1=NOC2(CCN(C)CC2)C1)c1ncc(-c2ccc(-c3ccccn3)cc2OC)o1` [Compound 391], the IC50 was 74.5 nM on Recombinant human HDAC2, > 900 nM at Recombinant human HDAC8, > 900 nM on HDAC6 and 9.57 nM on Recombinant human HDAC1.
As to `CCC(=O)CCCCC[C@H](NC(=O)C1=NOC2(CCN(C)CC2)C1)c1nnc(-c2cc3ccccc3nc2OC)o1` [Compound 370], the IC50 at Recombinant human HDAC2 was 41.8 nM; on Recombinant human HDAC8, 8650 nM; on HDAC6 it was 1740 nM; on Recombinant human HDAC1, 10.8 nM.
On to `CCC(=O)CCCCC[C@H](NC(=O)[C@H]1CC[C@@]2(CC1)OC(=O)c1cnccc12)c1ncc(-c2ccccc2)[nH]1` [Compound 373], for which the IC50 on Recombinant human HDAC2 came to 423 nM; at Recombinant human HDAC8, 6670 nM; against HDAC6, 10100 nM; at Recombinant human HDAC1 it was 95.6 nM.
On the same counts, the results for `CCC(=O)CCCCC[C@H](NC(=O)C1CC12CCOCC2)c1ncc(-c2cc3ccc(C)nc3cc2OC)[nH]1` (single isomer, unassigned) [Compound 413] are 155 nM, > 900 nM, > 900 nM and 16.2 nM.
For `CCC(=O)CCCCC[C@H](NCC1CN(C)C1)c1ncc(-c2cc3ccc(C)nc3cc2OC)o1` [Compound 401, (9S)-9-[5-(7-methoxy-2-methylquinolin-6-yl)-1,3-oxazol-2-yl]-9-{[(1-methylazetidin-3-yl)methyl]amino}nonan-3-one] the same measures were 179 nM, > 900 nM, > 900 nM and 32.1 nM.
Regarding `CCC(=O)CCCCC[C@H](NC(=O)[C@H]1CC[C@]2(CC1)OC(=O)c1cccnc12)c1ncc(-c2ccccc2)[nH]1` [Compound 378], the IC50 was found to be 220 nM on Recombinant human HDAC2, 2960 nM at Recombinant human HDAC8, 10800 nM against HDAC6 and 46 nM on Recombinant human HDAC1.
Regarding `CCC(=O)CCCCC[C@H](NC(=O)C1=NOC2(CCN(C)CC2)C1)c1ncc(-c2cc3ccc(N(C)C)nc3cc2OC)o1` [Compound 397], the IC50 on Recombinant human HDAC2 is 6.6 nM; on Recombinant human HDAC8, > 900 nM; against HDAC6, > 900 nM; at Recombinant human HDAC1, 1.36 nM.
For `CCC(=O)CCCCC[C@H](NC(=O)[C@H]1CC12CCN(CC1CC1)CC2)c1ncc(-c2ccc3nc(C)ccc3c2)[nH]1` [Compound 393], the IC50 is 0.1 nM at Recombinant human HDAC2, > 900 nM on Recombinant human HDAC8, 325 nM against HDAC6 and 0.05 nM on Recombinant human HDAC1.
On the same counts, the results for `CCC(=O)CCCCC[C@H](NC(=O)[C@H]1CC[C@@]2(CC1)OC(=O)c1ncccc12)c1ncc(-c2ccccc2)[nH]1` [Compound 374] are 423 nM, 8180 nM, 11200 nM and 92.7 nM.
On the same counts, the results for `CCC(=O)CCCCC[C@H](NC(=O)[C@H]1CC[C@@]2(CC1)OC(=O)c1cccnc12)c1ncc(-c2ccccc2)[nH]1` [Compound 375] are 479 nM, 8880 nM, 10200 nM and 117 nM.
For `CCC(=O)CCCCC[C@H](NC(=O)C1=NOC2(CCN(C(=O)OC)CC2)C1)c1ncc(-c2ccccc2)[nH]1` [Compound 381] the same measures were 637 nM, 7470 nM, 32300 nM and 179 nM.
Turning to `CCC(=O)CCCCC[C@H](NC(=O)C1=NOC2(CCN(C(C)C)CC2)C1)c1ncc(-c2ccccc2)[nH]1` [Compound 379], the IC50 at Recombinant human HDAC2 stood at 100 nM; at Recombinant human HDAC8 it was 3290 nM; at HDAC6, 8590 nM; at Recombinant human HDAC1, 21.9 nM.
For `CCC(=O)CCCCC[C@H](NCc1ccncc1)c1ncc(-c2cc3ccc(C)nc3cc2OC)[nH]1` [Compound 404] the same measures were > 900 nM, > 900 nM, > 900 nM and 367 nM.
For the molecule `CCC(=O)CCCCC[C@H](NC(=O)C1=NOC2(CCN(C)CC2)C1)c1ncc(-c2cc3ccc(=O)n(C)c3cc2F)o1` [Compound 386], the IC50 at Recombinant human HDAC2 is 54.7 nM; on Recombinant human HDAC8 it was > 900 nM; against HDAC6 it was > 900 nM; at Recombinant human HDAC1, 7.82 nM.
`CCC(=O)CCCCC[C@H](NC(=O)C1=NOC2(CCN(C)CC2)C1)c1ncc(-c2cc3ccncc3cc2OC)o1` [Compound 415]: the IC50 was 33.1 nM at Recombinant human HDAC2, > 900 nM at Recombinant human HDAC8, > 900 nM against HDAC6 and 3.31 nM at Recombinant human HDAC1.
As to `CCC(=O)CCCCC[C@H](NC(=O)C1=NOC2(CCN(C)CC2)C1)c1ncc(-c2ccccc2)[nH]1` [Compound 382], the IC50 turned out to be 146 nM on Recombinant human HDAC2, 6640 nM at Recombinant human HDAC8, 12100 nM on HDAC6 and 32.9 nM on Recombinant human HDAC1.
For the molecule `CCC(=O)CCCCC[C@H](NC(=O)[C@H]1CC12CCN(C)CC2)c1ncc(-c2cc3ocnc3cc2F)o1` [Compound 389], the IC50 at Recombinant human HDAC2 was 98.3 nM; at Recombinant human HDAC8, > 900 nM; at HDAC6, > 900 nM; on Recombinant human HDAC1, 21.4 nM.
With `CCN[C@@H](CCCCCC(=O)CC)c1ncc(-c2cc3ccc(C)nc3cc2OC)[nH]1` [Compound 403], the IC50 is > 900 nM at Recombinant human HDAC2, > 900 nM on Recombinant human HDAC8, > 900 nM at HDAC6 and 248 nM at Recombinant human HDAC1.
With `CCC(=O)CCCCC[C@H](NC(=O)C1=NOC2(CCN(C(C)C)CC2)C1)c1nnc(-c2cc3ccccc3nc2OC)o1` [Compound 369], the IC50 on Recombinant human HDAC2 turned out to be 68.2 nM; at Recombinant human HDAC8, 19900 nM; against HDAC6, 2500 nM; on Recombinant human HDAC1, 18.5 nM.
Take `CCC(=O)CCCCC[C@H](NC(=O)C1=NOC2(CCN(S(C)(=O)=O)CC2)C1)c1nnc(-c2cc3ccccc3nc2OC)o1` [Compound 371]: the IC50 at Recombinant human HDAC2 is 287 nM; at Recombinant human HDAC8 it was > 45000 nM; on HDAC6 it was 4660 nM; on Recombinant human HDAC1, 86.7 nM.
